GI50 and TGI data for 7 compounds are collected here from PubChem BioAssay (NCI).

Test systems include MDA-MB-435; SK-MEL-2 melanoma; SK-MEL-28 melanoma; SNB-19 CNS; A498 renal; CAKI-1 renal; MALME-3M melanoma; OVCAR-4 ovarian; HOP-62 NSCLC; SN12C renal.
What all share (experiment): DTP human tumour cell line panel, 48 h

Where “and” joins values, the source holds several entries; their conditions need not be identical. Equal values may be shown once.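 In this assay, cells in 96-well plates receive the compound at five concentrations for 48 hours. Endpoints are linearly interpolated between the surrounding concentrations. GI50: concentration for 50% inhibition of growth. TGI marks complete inhibition of growth.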

One may read the GI50 as the concentration at which growth is held to half of that of the control. What is called TGI is the concentration at which net growth stops.

As to `CN1CCN(Cc2ccc3c(NNC(=O)c4ccccc4)nc4cc(F)ccc4n23)CC1`, the GI50 was 0.599 µM in the assay with MDA-MB-435; 2.41 µM in the assay with SK-MEL-2 melanoma; 0.566 µM with SK-MEL-28 melanoma; 0.587 µM with SNB-19 CNS; 0.658 µM with A498 renal; 0.248 µM in the assay with CAKI-1 renal. The GI50 with MALME-3M melanoma is 0.584 µM; in the assay with OVCAR-4 ovarian, 0.335 µM; in the assay with HOP-62 NSCLC it was 0.27 µM; in the assay with SN12C renal, 0.551 µM. Also, the TGI in the assay with MDA-MB-435 is above 66 µM; with SK-MEL-2 melanoma, above 70.6 µM; with SK-MEL-28 melanoma it was 17.8 µM; in the assay with SNB-19 CNS, above 100 µM; with A498 renal, 8.81 µM; in the assay on CAKI-1 renal it was 14.4 µM. The TGI in the assay with MALME-3M melanoma is 12.7 µM; with OVCAR-4 ovarian, 37.1 µM; in the assay on HOP-62 NSCLC, above 100 µM; in the assay on SN12C renal, above 100 µM.

For `O=c1oc2ccc(-c3ccc(F)cc3F)cc2c(=O)n1-c1ccc(Cl)c(C(F)(F)F)c1`, the GI50 with MDA-MB-435 is 3.07 µM; in the assay on SK-MEL-2 melanoma it was 1.99 µM; in the assay on SK-MEL-28 melanoma it was 2.05 µM; in the assay with SNB-19 CNS it was 3.65 µM; with A498 renal, 0.656 µM; in the assay on CAKI-1 renal it was 1.91 µM. Further, the GI50 is 2.19 µM with MALME-3M melanoma, 3.16 µM in the assay with OVCAR-4 ovarian, 1.93 µM in the assay on HOP-62 NSCLC and 2.6 µM in the assay with SN12C renal. Besides, the TGI in the assay on MDA-MB-435 was 9.83 µM; in the assay on SK-MEL-2 melanoma, 4.76 µM; in the assay on SK-MEL-28 melanoma, 5.77 µM; in the assay on SNB-19 CNS, above 100 µM; with A498 renal, 2.4 µM; in the assay on CAKI-1 renal, 6.35 µM. The TGI was 5.73 µM in the assay on MALME-3M melanoma, above 100 µM with OVCAR-4 ovarian, 4.09 µM with HOP-62 NSCLC and 11.7 µM in the assay with SN12C renal.

Turning to `Nc1ccccc1C#C/C=C\C#Cc1c(F)c(F)c(F)c(F)c1F`, the GI50 in the assay on MDA-MB-435 was 14.9 µM; with SK-MEL-2 melanoma it was 26.3 µM; in the assay with SK-MEL-28 melanoma, 17 µM; with SNB-19 CNS, 26 µM; with A498 renal, 25.5 µM; with CAKI-1 renal it was 10.9 µM. For the same compound, the GI50 is 18.6 µM in the assay with MALME-3M melanoma, 20.2 µM with OVCAR-4 ovarian, 12.7 µM in the assay with HOP-62 NSCLC and 7.37 µM with SN12C renal. The concentration for total growth inhibition (TGI) stood at 31.7 µM with MDA-MB-435; 88.9 µM with SK-MEL-2 melanoma; 38.4 µM with SK-MEL-28 melanoma; 55.4 µM in the assay on SNB-19 CNS; 55.8 µM in the assay on A498 renal; 29.1 µM in the assay on CAKI-1 renal. The TGI in the assay on MALME-3M melanoma was determined as 40.1 µM; in the assay with OVCAR-4 ovarian it was 96 µM; in the assay with HOP-62 NSCLC it was 27.8 µM; with SN12C renal, 20.5 µM.

For `Cc1ccc(-c2nc(-c3cn(C)c4ncccc34)cs2)cc1`, the GI50 is 0.402 µM with MDA-MB-435; 6.77 µM in the assay with SK-MEL-2 melanoma; 10.2 µM in the assay on SK-MEL-28 melanoma; 5.27 µM with SNB-19 CNS; 0.277 µM with A498 renal; 2.27 µM in the assay on CAKI-1 renal. Also, the GI50 is 4.85 µM in the assay with MALME-3M melanoma, 12.8 µM with OVCAR-4 ovarian, 7.71 µM with HOP-62 NSCLC and 5 µM in the assay on SN12C renal. Further, the TGI was 2.88 µM in the assay on MDA-MB-435; 34 µM with SK-MEL-2 melanoma; 26.4 µM in the assay on SK-MEL-28 melanoma; 30.5 µM with SNB-19 CNS; 8.24 µM in the assay with A498 renal; 15.2 µM in the assay on CAKI-1 renal. The TGI in the assay with MALME-3M melanoma worked out at 26.5 µM; with OVCAR-4 ovarian, 46.4 µM; with HOP-62 NSCLC, 22 µM; in the assay on SN12C renal, 22.8 µM.

On to `C[C@@H]1COCCN1c1cc(C2([S@@](C)(=N)=O)CC2)nc(-c2ccnc3[nH]ccc23)n1`, for which the GI50 is 5.27 µM in the assay with MDA-MB-435; 5.61 µM in the assay on SK-MEL-2 melanoma; 9.76 µM in the assay on SK-MEL-28 melanoma; 7.72 µM in the assay on SNB-19 CNS; 0.716 µM with A498 renal; 11.7 µM with CAKI-1 renal. Besides, the GI50 was 7.32 µM in the assay on MALME-3M melanoma, 3.41 µM in the assay on OVCAR-4 ovarian, 3.74 µM in the assay on HOP-62 NSCLC and 6.02 µM with SN12C renal. Further, the TGI with MDA-MB-435 was above 100 µM; in the assay with SK-MEL-2 melanoma it was 44.9 µM; with SK-MEL-28 melanoma, above 88.9 µM; in the assay with SNB-19 CNS, above 100 µM; with A498 renal, 4.2 µM; in the assay with CAKI-1 renal, above 79.2 µM. The TGI with MALME-3M melanoma was 54.6 µM; in the assay on OVCAR-4 ovarian, 63.9 µM; in the assay on HOP-62 NSCLC, 63.6 µM; in the assay with SN12C renal it was above 100 µM.

Take `Cc1cn(-c2ccc(S(C)(=O)=O)cc2)c(-c2ccc(Cl)cc2)n1`: the GI50 with MDA-MB-435, in the assay on SK-MEL-2 melanoma, in the assay with SK-MEL-28 melanoma, with SNB-19 CNS, with A498 renal and in the assay with CAKI-1 renal was above 100 µM throughout. The GI50 in the assay on MALME-3M melanoma, with OVCAR-4 ovarian, in the assay with HOP-62 NSCLC and in the assay with SN12C renal was above 100 µM each time. The TGI in the assay on MDA-MB-435, in the assay with SK-MEL-2 melanoma, in the assay with SK-MEL-28 melanoma, in the assay on SNB-19 CNS, in the assay with A498 renal and with CAKI-1 renal was above 100 µM each time. For the same compound, the TGI in the assay on MALME-3M melanoma, in the assay with OVCAR-4 ovarian, in the assay with HOP-62 NSCLC and in the assay with SN12C renal was above 100 µM throughout.

Take `CN1CCN(CCOc2cc(OC3CCOCC3)c3c(Nc4c(Cl)ccc5c4OCO5)ncnc3c2)CC1`: the GI50 in the assay on MDA-MB-435 is 13.5 µM and > 10 µM; in the assay on SK-MEL-2 melanoma, 16.6 µM and > 10 µM; in the assay with SK-MEL-28 melanoma it was 13.6 µM and > 10 µM; with SNB-19 CNS, 12.1 µM and > 10 µM; in the assay on A498 renal it was 0.529 µM and 1.37 µM; with CAKI-1 renal, 0.571 µM and 0.644 µM. Also, the GI50 with MALME-3M melanoma is 14.1 µM and > 10 µM; with OVCAR-4 ovarian it was 13.5 µM and > 10 µM; in the assay on HOP-62 NSCLC, 5.48 µM and 8.53 µM; in the assay with SN12C renal, 0.736 µM and 3.31 µM. Besides, the TGI with MDA-MB-435 was 27.2 µM and > 10 µM; with SK-MEL-2 melanoma, 31.8 µM and > 10 µM; in the assay with SK-MEL-28 melanoma, 27.2 µM and > 10 µM; with SNB-19 CNS, above 100 µM; in the assay on A498 renal it was 4.52 µM and > 10 µM; in the assay on CAKI-1 renal it was 10.5 µM and > 10 µM. For the same compound, the total growth inhibition concentration (TGI) in the assay with MALME-3M melanoma was 30.1 µM and > 10 µM; in the assay with OVCAR-4 ovarian, 34.7 µM and > 10 µM; in the assay on HOP-62 NSCLC it was 26.7 µM and > 10 µM; in the assay on SN12C renal, 27.2 µM and > 10 µM.
